From PubChem BioAssay AID1963448 (Molecular Pharmacology Branch, DTP, NCI, 2024)

Tested on: 616215-338-R-J1-PDC complex spheroid growth, % test/control
Test: Anticancer human tumor 616215-338-R-J1-PDC patient-derived colon adenocarcinoma cell line growth inhibition [Asc]
Settings: for IC50: curve of first compound; for viability, T/C: stronger effect = lower value
How it was run: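 Spheroid model: tumor line + HUVEC + hMSC. Single agents and combinations; top conc. at/near clinical Cmax (10 microM if undetermined), half-log dilutions. DMSO stocks at 800-fold test concentration.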

[1] = second compound 0.1 µM, first compound 0.0316 µM
[2] = second compound 0.1 µM, first compound 0.1 µM
[3] = second compound 0.1 µM, first compound 0.316 µM
[4] = second compound 0.1 µM, first compound 1 µM
[5] = second compound 0.1 µM, first compound 3.16 µM
[6] = second compound 0.1 µM, first compound 10 µM
[7] = second compound 0.316 µM, first compound 0.0316 µM
[8] = second compound 0.316 µM, first compound 0.1 µM
[9] = second compound 0.316 µM, first compound 0.316 µM
[10] = second compound 0.316 µM, first compound 1 µM
[11] = second compound 0.316 µM, first compound 3.16 µM
[12] = second compound 0.316 µM, first compound 10 µM
[13] = second compound 1 µM, first compound 0.0316 µM
[14] = second compound 1 µM, first compound 0.1 µM
[15] = second compound 1 µM, first compound 0.316 µM
[16] = second compound 1 µM, first compound 1 µM
[17] = second compound 1 µM, first compound 3.16 µM
[18] = second compound 1 µM, first compound 10 µM
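Also: spheroids exposed to agents for seven days before readout.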
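For viability, T/C in this document: 100% = DMSO vehicle control viability.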

`C=C(F)C(=O)N1CCN(c2nc(OCC3CCCN3C)nc3c2CCN(c2cccc4cccc(Cl)c24)C3)CC1CC#N` (configuration not stated) + Cc1c(S(C)(=O)=O)c(-c2cc(F)cc(N3CCN(c4ccc(NS(=O)(=O)c5ccc(NC(CCN6CCC(C(=O)OCCCP(=O)(O)O)CC6)CSc6ccccc6)c(S(=O)(=O)C(F)(F)F)c5)cc4)CC3)c2)c(-c2ccc(Cl)cc2)n1C(C)C showed an IC50 (second compound 0.1 µM) of 5430 nM, an IC50 (second compound 0.316 µM) of 4900 nM and an IC50 (second compound 1 µM) of 2950 nM. The IC50 (second compound 3.16 µM) was under 31.6 nM, the IC50 (second compound 10 µM) was under 31.6 nM and the viability, T/C [1] was 93.2%. It also gave a viability, T/C [2] of 91.6%, a viability, T/C [3] of 87.8% and a viability, T/C [4] of 100%. The viability, T/C [5] was 96.1%, the viability, T/C [6] was 0.45% and the viability, T/C [7] was 89.1%. It also gave a viability, T/C [8] of 89.3%, a viability, T/C [9] of 85.6% and a viability, T/C [10] of 88.5%. For the same compound, the viability, T/C [11] was 80.4%, the viability, T/C [12] was 0.42% and the viability, T/C [13] was 65%. The viability, T/C [14] was 70.8%, the viability, T/C [15] was 67.9% and the viability, T/C [16] was 62.8%. It also gave a viability, T/C [17] of 49.4%, a viability, T/C [18] of 0.39% and a viability, T/C (second compound 3.16 µM, first compound 0.0316 µM) of 37.2%. It also gave a viability, T/C (second compound 3.16 µM, first compound 0.1 µM) of 36.6%, a viability, T/C (second compound 3.16 µM, first compound 0.316 µM) of 35.4% and a viability, T/C (second compound 3.16 µM, first compound 1 µM) of 32%. The viability, T/C (second compound 3.16 µM, first compound 3.16 µM) was 2.23%, the viability, T/C (second compound 3.16 µM, first compound 10 µM) was 0.3% and the viability, T/C (second compound 10 µM, first compound 0.0316 µM) was 26.4%. It also gave a viability, T/C (second compound 10 µM, first compound 0.1 µM) of 23.3%, a viability, T/C (second compound 10 µM, first compound 0.316 µM) of 20.3% and a viability, T/C (second compound 10 µM, first compound 1 µM) of 18.8%. For the same compound, the viability, T/C (second compound 10 µM, first compound 3.16 µM) was 1.56% and the viability, T/C (second compound 10 µM, first compound 10 µM) was 0.39%.
Compound `C=C(F)C(=O)N1CCN(c2nc(OCC3CCCN3C)nc3c2CCN(c2cccc4cccc(Cl)c24)C3)CC1CC#N` (configuration not stated) + CNC(C)C(=O)NC1CN(S(=O)(=O)c2cccc(S(=O)(=O)N3CCC4CCC(C(=O)NC(c5ccccc5)c5ccccc5)N4C(=O)C(NC(=O)C(C)NC)C3)c2)CCC2CCC(C(=O)NC(c3ccccc3)c3ccccc3)N2C1=O has an IC50 (second compound 0.00316 µM) of 175 nM, an IC50 (second compound 0.01 µM) of 162 nM and an IC50 (second compound 0.0316 µM) of 155 nM. It also gave an IC50 (second compound 0.1 µM) of 52.6 nM, an IC50 (second compound 0.316 µM) of 243 nM and an IC50 (second compound 1 µM) of 131 nM. For the same compound, the viability, T/C (second compound 0.00316 µM, first compound 0.0316 µM) was 61%, the viability, T/C (second compound 0.00316 µM, first compound 0.1 µM) was 53.5% and the viability, T/C (second compound 0.00316 µM, first compound 0.316 µM) was 43.7%. The viability, T/C (second compound 0.00316 µM, first compound 1 µM) was 23.7%, the viability, T/C (second compound 0.00316 µM, first compound 3.16 µM) was 1.09% and the viability, T/C (second compound 0.00316 µM, first compound 10 µM) was 0.18%. For the same compound, the viability, T/C (second compound 0.01 µM, first compound 0.0316 µM) was 64.8%, the viability, T/C (second compound 0.01 µM, first compound 0.1 µM) was 53.1% and the viability, T/C (second compound 0.01 µM, first compound 0.316 µM) was 41.4%. It also gave a viability, T/C (second compound 0.01 µM, first compound 1 µM) of 26.3%, a viability, T/C (second compound 0.01 µM, first compound 3.16 µM) of 0.82% and a viability, T/C (second compound 0.01 µM, first compound 10 µM) of 2.38%. It also gave a viability, T/C (second compound 0.0316 µM, first compound 0.0316 µM) of 65.3%, a viability, T/C (second compound 0.0316 µM, first compound 0.1 µM) of 43.8% and a viability, T/C (second compound 0.0316 µM, first compound 0.316 µM) of 47.5%. For the same compound, the viability, T/C (second compound 0.0316 µM, first compound 1 µM) was 21.2%, the viability, T/C (second compound 0.0316 µM, first compound 3.16 µM) was 0.88% and the viability, T/C (second compound 0.0316 µM, first compound 10 µM) was 0.16%. For the same compound, the viability, T/C [1] was 54.9%, the viability, T/C [2] was 43.8% and the viability, T/C [3] was 39.4%. It also gave a viability, T/C [4] of 23.5%, a viability, T/C [5] of 0.85% and a viability, T/C [6] of 1.36%. It also gave a viability, T/C [7] of 56.5%, a viability, T/C [8] of 58.4% and a viability, T/C [9] of 47.7%. For the same compound, the viability, T/C [10] was 13.9%, the viability, T/C [11] was 1.16% and the viability, T/C [12] was 0.18%. For the same compound, the viability, T/C [13] was 60%, the viability, T/C [14] was 52% and the viability, T/C [15] was 38.8%. For the same compound, the viability, T/C [16] was 15.7%, the viability, T/C [17] was 1.42% and the viability, T/C [18] was 0.21%.
`COc1c(OCCCN2CCOCC2)ccc2c3n(c(=NC(=O)c4cnc(N)nc4)nc12)CCN3` + CCN1C(C(=O)NC23CCC(C(=O)O)(CC2)CC3)C(c2cccc(Cl)c2F)C2(C(=O)Nc3cc(Cl)ccc32)C12CCCCC2 was tested, and the IC50 (second compound 0.03 µM) was 153 nM, the IC50 (second compound 0.0949 µM) was 73.4 nM and the IC50 (second compound 0.3 µM) was 21.9 nM. The IC50 (second compound 0.949 µM) was 9.45 nM, the IC50 (second compound 3 µM) was under 3.16 nM and the viability, T/C (second compound 0.03 µM, first compound 0.00316 µM) was 95.7%. For the same compound, the viability, T/C (second compound 0.03 µM, first compound 0.01 µM) was 99.4%, the viability, T/C (second compound 0.03 µM, first compound 0.0316 µM) was 99.7% and the viability, T/C (second compound 0.03 µM, first compound 0.1 µM) was 63.6%. The viability, T/C (second compound 0.03 µM, first compound 0.316 µM) was 26%, the viability, T/C (second compound 0.03 µM, first compound 1 µM) was 13.1% and the viability, T/C (second compound 0.0949 µM, first compound 0.00316 µM) was 89.3%. For the same compound, the viability, T/C (second compound 0.0949 µM, first compound 0.01 µM) was 81.2%, the viability, T/C (second compound 0.0949 µM, first compound 0.0316 µM) was 74.2% and the viability, T/C (second compound 0.0949 µM, first compound 0.1 µM) was 41%. For the same compound, the viability, T/C (second compound 0.0949 µM, first compound 0.316 µM) was 15.2%, the viability, T/C (second compound 0.0949 µM, first compound 1 µM) was 6.02% and the viability, T/C (second compound 0.3 µM, first compound 0.00316 µM) was 59.7%. The viability, T/C (second compound 0.3 µM, first compound 0.01 µM) was 59.2%, the viability, T/C (second compound 0.3 µM, first compound 0.0316 µM) was 46% and the viability, T/C (second compound 0.3 µM, first compound 0.1 µM) was 23.4%. The viability, T/C (second compound 0.3 µM, first compound 0.316 µM) was 9.03%, the viability, T/C (second compound 0.3 µM, first compound 1 µM) was 3.12% and the viability, T/C (second compound 0.949 µM, first compound 0.00316 µM) was 55.1%. For the same compound, the viability, T/C (second compound 0.949 µM, first compound 0.01 µM) was 47%, the viability, T/C (second compound 0.949 µM, first compound 0.0316 µM) was 38.4% and the viability, T/C (second compound 0.949 µM, first compound 0.1 µM) was 14%. For the same compound, the viability, T/C (second compound 0.949 µM, first compound 0.316 µM) was 5.66%, the viability, T/C (second compound 0.949 µM, first compound 1 µM) was 1.65% and the viability, T/C (second compound 3 µM, first compound 0.00316 µM) was 45.7%. For the same compound, the viability, T/C (second compound 3 µM, first compound 0.01 µM) was 40.4%, the viability, T/C (second compound 3 µM, first compound 0.0316 µM) was 27.4% and the viability, T/C (second compound 3 µM, first compound 0.1 µM) was 7.37%. It also gave a viability, T/C (second compound 3 µM, first compound 0.316 µM) of 3.24% and a viability, T/C (second compound 3 µM, first compound 1 µM) of 0.71%.
